The values that follow come from patent publication US20040072825A1, “2-(2-(4-((2r)-2-methyl-3-(10h-phenothiazin-10-yl)propyl)-1-piperazinyl)-ethoxy) ethanol, process for the preparation thereof, pharmaceutical compositions containing said compound and therapeutic uses thereof” (priority 2000, published 2004).

Structures are written as SMILES.

One test deals with D2 dopaminergic receptor (Rattus norvegicus, UniProt P61169). Nature of the test: Radioligand binding, D2 receptor (rat striatum membranes). As for the experimental part: (§1) The test substances, biological materials and experimental protocols used in the study are described in Moguilevsky N. et al. (1994) Eur. J. […] List S. J. (1981) Proc. Natl. Acad. Sci.78:2620-2624; MacKenzie R. G. et al. (1994) Eur. J. Pharmacol. 266:79-85; Van Tol et al., (1992) Nature, 358:149-152. […] Filtermat A, Walac), then washed with cold buffer using a filtration unit ‘Cell Harvester’ (Brandel, Packard or Tomtec). The bound radioactivity is measured using a scintillation liquid (Formula 989 or Microscint 0, Packard) or solid (Meltilex B/HS, Wallac), and a scintillation counter (LS 6000, Beckman; Topcount, Packard; Betaplate, Wallac). […] Each experiment was performed in duplicate (n=2). In parallel, a positive control (concentration of reference substance causing 50% inhibition of radioligand specific binding) is tested to validate the assay. For competition experiments, membranes are incubated in the buffer containing the radioligand and increasing concentrations of unlabeled test substances. Each binding assay is validated with a reference compound tested in parallel. […] where BO and BI represent the total binding in the absence and presence of the unlabelled drug (in dpm/assay) and NSB is the amount of non specific binding (in dpm/assay). Analysis of raw data and pIC50 calculation is performed by computerized non-linear curve fitting methods using a set of equations describing competitive interactions between labelled and unlabeled ligands which obey the law of mass action. IC50 represents the concentration of the test substance inhibiting 50% of the specific binding of the radioligand. It is determined in competitive binding experiments by measuring the binding of a single concentration of a radioactive ligand at equilibrium with various concentrations of the unlabeled test substance. pIC50=−log IC50

The subject of test [1] is postoperative nausea and vomiting. Conditions: prophylactic administration, analgesia with morphine; cited from earlier work.
Test [2] concerns the target human H1 histaminic receptor (Homo sapiens, UniProt P35367). Put plainly: Radioligand binding, human H1 receptor (CHO cell culture). As for the experimental part: as §1
For test [3], the target named is T1, 5-HT2 serotonergic receptor (Rattus norvegicus, UniProt P14842).
T1 construct: the rat cerebral cortex (5-HT2 receptor); from tissue; host or cells: rat cerebral cortex
Put plainly: Radioligand binding, 5-HT2 receptor (rat cerebral cortex). The method, then: as §1

T1 sequence (P14842 whole entry): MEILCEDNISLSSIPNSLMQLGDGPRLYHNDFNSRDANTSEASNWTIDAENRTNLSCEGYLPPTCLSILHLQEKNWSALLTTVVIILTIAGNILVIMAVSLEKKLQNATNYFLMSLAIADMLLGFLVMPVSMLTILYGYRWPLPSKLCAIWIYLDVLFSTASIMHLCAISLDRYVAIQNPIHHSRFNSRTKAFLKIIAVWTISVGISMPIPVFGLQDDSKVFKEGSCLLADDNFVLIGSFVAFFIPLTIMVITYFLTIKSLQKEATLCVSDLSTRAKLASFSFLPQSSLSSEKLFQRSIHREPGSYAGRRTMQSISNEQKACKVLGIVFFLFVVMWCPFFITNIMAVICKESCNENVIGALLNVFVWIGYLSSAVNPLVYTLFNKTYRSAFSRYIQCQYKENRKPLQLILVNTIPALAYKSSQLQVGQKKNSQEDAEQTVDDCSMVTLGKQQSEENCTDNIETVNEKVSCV
Chain of human H1 histaminic receptor (P35367 whole entry): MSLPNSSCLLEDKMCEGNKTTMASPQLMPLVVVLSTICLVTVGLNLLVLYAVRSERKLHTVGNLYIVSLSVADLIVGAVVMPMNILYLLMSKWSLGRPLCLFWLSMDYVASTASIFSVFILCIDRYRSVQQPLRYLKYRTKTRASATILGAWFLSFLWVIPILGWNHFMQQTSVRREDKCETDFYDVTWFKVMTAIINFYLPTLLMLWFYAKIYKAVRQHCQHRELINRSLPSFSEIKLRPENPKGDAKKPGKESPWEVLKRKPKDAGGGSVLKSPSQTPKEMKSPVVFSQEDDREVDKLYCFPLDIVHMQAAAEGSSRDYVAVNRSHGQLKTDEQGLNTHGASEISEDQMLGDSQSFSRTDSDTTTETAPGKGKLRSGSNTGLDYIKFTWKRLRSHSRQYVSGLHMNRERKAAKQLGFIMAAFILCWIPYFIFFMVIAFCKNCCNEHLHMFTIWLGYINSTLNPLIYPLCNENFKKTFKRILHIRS
Chain of D2 dopaminergic receptor (P61169 1-415 isoform P61169-2): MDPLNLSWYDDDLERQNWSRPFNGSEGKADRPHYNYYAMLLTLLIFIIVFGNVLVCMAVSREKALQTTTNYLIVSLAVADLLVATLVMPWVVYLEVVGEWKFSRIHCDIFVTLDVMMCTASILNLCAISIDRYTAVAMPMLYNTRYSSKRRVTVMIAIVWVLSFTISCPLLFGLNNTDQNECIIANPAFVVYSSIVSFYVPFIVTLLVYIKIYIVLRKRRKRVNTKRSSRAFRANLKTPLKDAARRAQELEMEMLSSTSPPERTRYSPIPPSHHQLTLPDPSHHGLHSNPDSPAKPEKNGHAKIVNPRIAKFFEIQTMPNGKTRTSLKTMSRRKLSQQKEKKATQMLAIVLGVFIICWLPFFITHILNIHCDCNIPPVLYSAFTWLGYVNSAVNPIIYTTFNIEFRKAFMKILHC

Take `CC(CN1CCN(CCOCCO)CC1)CN1c2ccccc2Sc2ccccc21` (racemic) [Dixyrazine, 2-(2-(4-(2-methyl-3-(10H-phenothiazin-10-yl)propyl)-1-piperazinyl)ethoxy)ethanol, reference compound]: the “percent inhibition of control specific binding” value is 94% at D2 dopaminergic receptor (D2, 10 μM, mean of duplicate, 10 µM); 100% in test [2] (H1, 10 μM, mean of duplicate, 10 µM); 102% in test [3] (5-HT2, 10 μM, mean of duplicate, 10 µM). Also, the inhibition (in general, the relative decrease from the control value, in per cent) at 10 µM on D2 dopaminergic receptor (D2, 10 μM, mean of duplicate, read-out: percent inhibition of control specific binding) was more than 90%; in test [2] (H1, 10 μM, mean of duplicate, read-out: percent inhibition of control specific binding), more than 90%; in test [3] (read-out: percent inhibition of control specific binding, 5-HT2, 10 μM, mean of duplicate), more than 90%. For the same compound, the IC50 – broadly, the concentration needed to halve the response being measured – at D2 dopaminergic receptor (D2, competitive binding, read-out: Affinity pIC50 (-log IC50) (converted)) is 5.01 nM; in test [2] (H1, competitive binding, read-out: Affinity pIC50 (-log IC50) (converted)), 0.501 nM; in test [3] (5-HT2, competitive binding, read-out: Affinity pIC50 (-log IC50) (converted)), 6.31 nM. Further, in test [1], the “incidence and severity of vomiting (in words)” value is “reduces the incidence and severity of vomiting”.
